Measurements published in EP0772773B1, “Src SH3 BINDING PEPTIDES AND METHODS OF ISOLATING AND USING SAME” (THE UNIVERSITY OF NORTH CAROLINA, priority 1994, dated 2006).
pKd: −log10 of the molar value. Entries after “also recorded” stand apart in the source; their conditions may differ.

Legend:
NIH 3T3 fibroblasts = experiment: Fluorescence staining of fixed fibroblasts with biotinylated peptides and streptavidin-Cy3; assay type: cell-based; conditions: fixed NIH 3T3 fibroblasts; biotinylated peptide, streptavidin-Cy3; Figure 11
Experimental: Thus, NIH 3T3 fibroblasts were cultured in vitro on glass coverslips coated with fibronectin. After two days of growth at 37 °C, the cells were fixed for one hour at room temperature in the presence of 2% paraformaldehyde (pH 7.5). The coverslips were washed with PBS-0.1% Tween 20 several times to remove the fixative. Next, the coverslips were dipped into acetone (chilled at -20 °C) for approximately 20 seconds and allowed to air-dry. The coverslips were washed again with PBS-0.1% Tween 20, containing BSA (1 mg/mL), and incubated for 2 hours at room temperature with different biotinylated peptides in PBS-0.1% Tween 20. The coverslips were washed and then incubated with 1 mg/mL streptavidin-Cy3 (Jackson Immunoresearch Co., West Grove, PA) for 1 hour at room temperature. Finally, the coverslips were washed in PBS-0.1% Tween 20, mounted in a glycerol solution on a glass slide, and viewed with a Nikon Optiphot epifluorescence microscope and a 60x oil immersion lens.

Src SH3-GST = experiment: Biotinylated synthetic peptide direct binding ELISA on immobilized GST-SH3 fusion; conditions: 10 µM biotinylated peptide; streptavidin-alkaline phosphatase ELISA, absorbance at 405 nm; Figures 7 and 8
Text: (§1) The preparation of Src-GST fusion protein was first described by Smith and Johnson, in Gene (1988) 67:31, the disclosure of which is incorporated by reference herein. Briefly, pGEX-derived (Pharmacia, Piscataway, NJ) constructs expressing GST fusion proteins containing the SH3 domains of Src, Grb2, Crk, Abl, or PLCγ were obtained from Dr. Channing Der (University of North Carolina at Chapel Hill.), a construct expressing the SH3 domain of Yes was obtained from Dr. Marius Sudol (Rockefeller University). The use of the pGEX bacterial expression vector for the production of GST-SH3 fusion proteins is well-known to those in the art. See, e.g., Cicchetti, P. et al., in Science (1992) 257:803-806. Briefly, the coding region for a particular SH3 domain can be fused in-frame at the Bam HI site of pGEX-2T. Thus, fusion proteins were prepared as per the manufacturer's instructions, and quantified by Coomassie Blue staining of SDS-polyacrylamide gels. Microtiter wells were coated with 5-20 µg GST-SH3 fusion protein in 100 mM NaHCO3, pH 8.5, blocked with 100 mM NaHCO3 (pH 8.5) 1% BSA, and washed. All washes consisted of five applications of 1XPBS, 0.1% Tween 20, 0.1% BSA (Buffer A). Where appropriate, the amount of protein bound to each well was quantified with an anti-GST antibody-based ELISA (Pharmacia, Piscataway, NJ), and with a GST-binding phage, isolated during the course of this work.
Bacterially expressed Src SH3 glutathione-s-transferase (Src-GST) fusion protein was purified from bacterial lysates using glutathione agarose 4B (Pharmacia), according to the manufacturer's instructions. Bound Src-GST fusion protein was eluted from the glutathione agarose with 10 mM glutathione in PBS. Microtiter wells were then coated with Src-GST fusion protein (1-10 µg/well, in 50 mM NaHCO3, pH 8.5) overnight at 4 °C. To block non-specific binding of phage, 100 µL 1% BSA in 100 mM NaHCO3, pH 8.5, was added to each well and allowed to incubate at room temperature for 1 hour. The wells were then washed five times with 200 µL PBS, 0.1% Tween 20, 0.1% BSA (Buffer A).
(§2) Peptides were obtained from Research Genetics (Birmingham, AL), Chiron Mimotopes (Victoria, Australia), or synthesized by conventional techniques by Dr. J. Mark Carter of cytogen Corporation (Princeton, NJ). Peptide purity was assessed by HPLC and/or mass spectrometry. Biotinylated peptides were synthesized with either a KSGSG (SEQ ID NO:103) or a GSGS (SEQ ID NO:104) peptide linker (a spacer) between the biotin and the N-terminus of the peptide. Binding experiments were performed as above, excepting the use of 10 µM peptide instead of phage. Bound biotinylated peptide was detected with streptavidin conjugated to alkaline phosphatase (Sigma chemical Co., st. Louis, MO). After one hour incubation period at room temperature, the wells were washed, and a solution of 3 mM p-nitrophenyl-phosphate (US Biochemicals, Cleveland, OH) in 50 mM NaCO3 (pH 9.8), and 50 mM MgCl2 was added and color allowed to develop. Signals were read with an ELISA plate reader (Molecular Devices, Menlo Park, CA) at 405 nm wavelength. Binding experiments were performed in triplicate.

SH3 domains [1] = experiment: Relative specificity of peptide binding across SH3 domains derived from different proteins; conditions: synthetic peptides, compared with 7-mer RPLPPLP, Figures 7 and 8
Text: as §1, §2

[2] = target: Src and PI-3' Kinase SH3 domains; conditions: Yu et al. / Chen et al., biased library peptides; read-out: binding affinity; cited from earlier work
PLCγ1 SH2SH3-GST = experiment: Biotinylated synthetic peptide direct binding ELISA on immobilized GST-SH3 fusion; conditions: 10 µM biotinylated peptide, absorbance at 405 nm, Figure 8
Text: as §1, §2

Yes SH3-GST = experiment: as above; conditions: 10 µM biotinylated peptide, absorbance at 405 nm, Figure 8
Text: as §1, §2

Grb2-GST = experiment: as above; conditions: 10 µM biotinylated peptide, absorbance at 405 nm, Figure 8
Text: as §1, §2

SH3 domains [3] = experiment: Relative specificity of peptide binding across SH3 domains derived from different proteins; conditions: not tested

Substance	fluorescence staining / cellular localization (NIH 3T3 fibroblasts)	binding to Src SH3-GST (Src SH3-GST)	relative binding affinity / specificity for SH3 domains (SH3 domains [1])	other results
biotin-spacer-GILAPPVPPRNTR	bright display of fluorescence activity	–	–	–
RPLPPLP	–	only weakly	less effective in binding to target SH3 domains	–
RKLPPRPRR ["composite" peptide of the literature]	–	–	–	pKd [2]: 5.12
KISPPTPKPKPPRPLPV [reference compound]	–	less well than the library-derived peptides	–	–
GPHRRLPPTPATR	–	much more avidly than the 7-mer	specific to Src family SH3 domains	relative binding affinity / specificity for SH3 domains (SH3 domains [1]; listed as GPHRRLPPPTPATR): avid binding affinity to SH3 domains relative to the 7-mer; binding to PLCγ SH3 domain (PLCγ1 SH2SH3-GST): little affinity; binding to Yes SH3-GST (Yes SH3-GST): much more avidly than the 7-mer; binding to Grb2 SH3 domain (Grb2-GST): little affinity
RSTPAPPVPPRTTR	–	–	–	surmised binding to a variety of SH3 domains (SH3 domains [3]): strong but generic binding
biotin-spacer-LAPPKPPLPEGEV [reference compound]	relatively "dark" features	–	–	–
ANPSPATRPLPTR	–	–	binding affinities comparable to the core consensus sequence; also recorded: avid binding affinity to SH3 domains relative to the 7-mer	relative binding affinity / specificity for SH3 domains (SH3 domains [1]; listed as AHPSPATRPLPTR): Src family specificity similar to GPHRRLPPTPATR
biotin-spacer-VLKRPLPIPPVTR	bright display of fluorescence activity	–	–	–
RSTPRPLPMLPTTR	–	much more avidly than the 7-mer; also recorded: strong specific binding affinity	highly specific for SH3 domain of Src, Yes, and other Src-related proteins	binding to Yes SH3-GST (Yes SH3-GST): much more avidly than the 7-mer
biotin-spacer-RSTPRPLPPLPTTR	bright display of fluorescence activity	–	–	–
GILAPPVPPRNTR	localize within cellular compartments thought to contain Src or Src-related proteins	much more avidly than the 7-mer	binds generically to a broad range of SH3 domains; also recorded: avid binding affinity to SH3 domains relative to the 7-mer; also recorded: more generic SH3 domain-binding characteristics	binding to Yes SH3-GST (Yes SH3-GST): much more avidly than the 7-mer
GTVEPVPPPVPPRRRPESA [reference compound]	–	less well than the library-derived peptides	–	–
RSTPRPLPPLPTTR [representative consensus motif with R8C.YES3.5 flanking residues]	localize within cellular compartments thought to contain Src or Src-related proteins	much more avidly than the 7-mer; also recorded: strong specific binding affinity	highly specific for SH3 domain of Src, Yes, and other Src-related proteins	binding to Yes SH3-GST (Yes SH3-GST): much more avidly than the 7-mer
